In paper PMC10349806 (Nature Communications, 2023):
“And” between values parts separate entries of the source, which are not always exact repeats. Equal values may be shown once.

Target: T1, PfCRT variant E232A (Plasmodium falciparum, UniProt Q9N623, A220S/E232A/I356T/K76T/M74I/N326S/N75E/Q271E/R371I)
T1 sequence (Q9N623 1-424 M74I/N75E/K76T/A220S/E232A/Q271E/N326S/I356T/R371I): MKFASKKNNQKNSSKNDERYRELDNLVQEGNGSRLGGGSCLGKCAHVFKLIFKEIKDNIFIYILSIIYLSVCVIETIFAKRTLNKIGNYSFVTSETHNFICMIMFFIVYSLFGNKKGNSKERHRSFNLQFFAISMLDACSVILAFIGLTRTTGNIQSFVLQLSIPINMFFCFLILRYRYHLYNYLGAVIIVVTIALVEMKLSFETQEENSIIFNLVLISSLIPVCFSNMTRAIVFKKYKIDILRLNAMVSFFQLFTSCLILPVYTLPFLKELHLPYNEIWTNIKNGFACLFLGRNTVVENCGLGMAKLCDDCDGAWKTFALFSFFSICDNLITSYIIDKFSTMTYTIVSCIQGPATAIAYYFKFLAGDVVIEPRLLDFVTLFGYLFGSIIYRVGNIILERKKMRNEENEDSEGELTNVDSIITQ
Assay: CQ uptake assay, oocytes expressing E232A
Assay type: cell-based
Description: Site-directed mutagenesis of PfCRT^Dd2 was performed as described using the megaprimer method with overlap extension[21],[54]. The primer pairs used are listed in Supplementary Table 6. Please note that a codon-optimized and oocyte-adapted version of PfCRT^Dd2 was used[22] (Supplementary Fig. 16). The resulting DNA fragment was cloned into the SP64T expression vector and verified by sequencing.
Oocytes were obtained as described previously. Briefly, adult (>2 years old) female X. laevis frogs (NASCO) were anesthetized in a cooled solution of ethyl 3-amino benzoate methanesulfonate (0.1%, w/v), followed by a surgical removal of parts of the ovary. The ovary lobes were carefully dissected and small pieces of oocytes were incubated in Ca^2+-free ND96 buffer (96 mM NaCl, 2 mM KCl, 1 mM MgCl2 buffered with 5 mM HEPES/NaOH, pH 7.5) supplemented with collagenase D (0.1%, w/v; Roche), BSA (0.5%, w/v), and 9 mm Na2HPO4 at 18 °C for 14-16 h while gentle shaking. After incubation, the oocytes were carefully washed several times with ND96 buffer (96 mM NaCl, 2 mM KCl, 1.8 mM CaCl2, 1 mM MgCl2 buffered with 5 mM HEPES/NaOH, pH 7.5) supplemented with 100 mg l^−1 gentamycin). Defolliculated and healthy-looking stage V-VI oocytes were manually selected for RNA microinjection. The RNA was generated as following: The codon-optimized sequences of PfCRT variants were cloned into the pSP64T expression vector. After vector linearization using the restriction endonucleases BamHI or SalI (New England Biolabs), transcription was performed using the in vitro SP6 mMessage mMachine Kit (Ambion)[34]. The obtained RNA was kept at −80 °C and diluted with nuclease-free water to a concentration of 0.6 μg μl^−1. Precision-bore glass capillary tubes (3.5-inch glass capillaries; Drummond Scientific Co.) were pulled on a vertical puller (P-87 Flaming/Brown micropipette puller, Sutter Instrument Co.), graduated, and placed on a microinjector (Nanoject II Auto-Nanoliter Injector, Drummond Scientific Co.). 50 nl of nuclease-free water alone (control oocytes) or 50 nl of 0.6 μg μl^−1 RNA were injected under stereomicroscopic control. Injected oocytes were incubated for 46–72 h at 18 °C with twice-daily buffer changes before usage in experiments.
Drug uptake assays were performed as described previously[21],[22],[24],[34]. […] The direction of radio-labeled drug transport is here from the mostly acidic extracellular solution (pH 4.5 or 6.0, as indicated) into the oocyte cytosol (pH ∼ 7.2), which corresponds to the efflux of drug from the acidic digestive vacuole (pH 5.2) into the parasite cytoplasm (pH 7.2). The topology of PfCRT in the oolemma is such that both the N- and C-terminus face the extracellular milieu[3],[22]. In the parasite, the N- and C-terminus face the lumen of the digestive vacuole. […] For determination of the amount of drug uptake for each oocyte, the reaction medium was removed and the oocytes were washed three times with 2 ml of ice-cold ND96 buffer. Each oocyte was individually transferred to a scintillation vial containing 5% sodium dodecyl sulfate (200 μl) for lysis. […] Oocytes that were injected with water instead of RNA were analyzed in parallel, representing the uptake of a drug by diffusion and/or endogenous permeation pathways. […] The specific PfCRT-mediated uptake was determined by subtracting the corresponding background value measured in water-injected oocytes from that of PfCRT-expressing oocytes. […]

SMILES: CCN(CC)CCCC(C)Nc1ccnc2cc(Cl)ccc12 (centres unmarked) [CQ, chloroquine]
- Activity at pH 4.5 (E232A, 50 µM CQ, 1 h, mean ± SEM): 1.07 ± 0.12 pmol h-1 oocyte-1
- R-value (E232A, CQ transport at pH 4.5 / pH 6.0): 0.65 ± 0.06
- E232A transport activity pH 4.5 (pH 4.5, single replicates, Fig 1d left): 1.05 pmol oocyte-1 h-1 and 1.32 pmol oocyte-1 h-1 and 1.01 pmol oocyte-1 h-1 and 0.62 pmol oocyte-1 h-1 and 1.37 pmol oocyte-1 h-1
- E232A R-value (pH 4.5 vs pH 6.0, Fig 1d left): 0.65 and 0.81 and 0.48 and 0.80
- E232A transport activity pH 6.0 (pH 6.0, single replicates, Fig 1d left): 1.62 pmol oocyte-1 h-1 and 1.63 pmol oocyte-1 h-1 and 2.09 pmol oocyte-1 h-1 and 1.28 pmol oocyte-1 h-1 and 1.71 pmol oocyte-1 h-1
